Molecules are shown by their SMILES. Read-outs that look alike come from different tables or passages of the source.

Holding throughout (format): biochemical
The target of test [1] is KLK6 (Homo sapiens, UniProt Q92876). The experiment in a line: KLK6 enzymatic inhibition assay (fluorogenic Boc-Phe-Ser-Arg-AMC substrate). More on the design: made in house. The conditions noted are these: for IC50: read-out: KLK6 pIC50 (converted); for LipE: LipE=pIC50 – logP (KLK6 pIC50, ALogP). As for the experimental part: Using our previously published KLK6 assay format,21 we performed a HTS with the European Lead Factory (ELF),22 and tested ∼350,000 substances at 10 μM for their ability to reduce KLK6‐catalyzed hydrolysis of the fluorogenic Boc‐Phe‐Ser‐Arg‐AMC peptide.
High Throughput Screen: The European Lead Factory library of ∼350,000 compounds was used for high throughput screening at the Pivot Park Screening Center facilities in Oss, The Netherlands. […] For SPR, Biacore T200 was used and KLK6 was immobilized onto a CM5 chip. […] An 8 point 1 in 3 dilution series of 1 (50 μM to 0.02 μM) was also applied at the beginning and end of each screening day.
Enzyme inhibition assays: All chemicals were purchased from Sigma Aldrich (Gillingham, UK) unless otherwise stated.

In test [2] the target is T1, Human Factor Xa (Homo sapiens, UniProt P00742).
T1 construct: Human Factor Xa was purchased from Enzo Life Sciences; purchased Enzo Life Sciences
The experiment in a line: Factor Xa enzyme inhibition assay. Conditions: read-out: Factor Xa pIC50 (converted). The method, then: (§1) Human thrombin was purchased from Biopur. Human trypsin was purchased from Polymun Scientific. Human Factor Xa was purchased from Enzo Life Sciences. Thrombin (20 nM), trypsin (0.000015 %) or Factor Xa (10 nM) were assayed in a similar manner to the KLKs but were incubated with compound for 20 min at room temperature in assay buffer (50 mM Tris HCl, pH 7.6, 100 mM NaCl, 1 mg/ml CHAPS, 0.05 % bovine serum albumin (BSA), 1 mM dithiothreitol (DTT)) before the addition of 5 μM, 2.5 μM or 1.5 μM Rhodamine 110 substrate (Cambridge bioscience ltd) respectively. Fluorescence intensity was then read at ex/em 485/535 following incubation for 1 h at room temperature (thrombin and factor Xa) or 20 min (trypsin).

The target of test [3] is T2, KLK8 (Homo sapiens, UniProt O60259).
T2 construct: purchased 2B scientific
T2 sequence (O60259 33-260): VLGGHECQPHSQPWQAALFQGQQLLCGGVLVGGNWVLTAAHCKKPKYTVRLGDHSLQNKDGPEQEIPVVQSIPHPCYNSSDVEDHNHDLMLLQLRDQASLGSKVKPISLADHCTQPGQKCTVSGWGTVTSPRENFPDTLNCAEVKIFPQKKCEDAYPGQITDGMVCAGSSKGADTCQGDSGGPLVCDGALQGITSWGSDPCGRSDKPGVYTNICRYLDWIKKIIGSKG
Briefly: KLK8 enzyme inhibition assay. Conditions: read-out: KLK8 pIC50 (converted). As for the experimental part:
(§2) Enzyme inhibition assays: All chemicals were purchased from Sigma Aldrich (Gillingham, UK) unless otherwise stated. All experiments were conducted in 384 well black, low volume microplates (Greiner 784076) with a final volume of 20 μL and compounds were dispensed into assay plates using an ECHO 550 acoustic dispenser (Labcyte). KLK6 (5 nM) (prepared as in ref. 21) was incubated with test compounds for 30 min at room temperature in assay buffer (50 mM Tris, pH 7.5, 150 mM NaCl, 1 mM EDTA, 0.05 % tween 20, 0.1 % bovine serum albumin (BSA), 1 mM dithiothreitol (DTT)) before the reaction was started by addition of 20 μM Boc‐Phe‐Ser‐Arg‐AMC substrate (Bachem). Fluorescence intensity was read at ex/em 355/460 following incubation for 2 h in the dark at room temperature.
(§3) Assays using KLK7 and KLK8 (2B scientific) were conducted in the same manner as for KLK6 with the following exceptions. Both KLK7 and KLK8 required activation before assaying. KLK7 was combined with an equal volume of 20 μg/ml thermolysin (R&D systems) in activation buffer (50 mM Tris, pH 7.5, 10 mM CaCl2, 150 mM NaCl and 0.05 % Brij‐L23) and incubated at 37 °C for 2 h, the reaction was stopped with the addition of 100 mM EDTA in stop solution (50 mM Tris, 150 mM NaCl, pH 8.5). KLK8 was combined with an equal volume of 0.4 mU/mL lysyl endopeptidase (Alpha laboratories) in activation buffer (50 mM Tris, pH 8.0) and incubated at 37 °C for 30 min. Activated KLK7 (40 nM) and KLK8 (25 nM) were assayed with 40 μM Mca‐RPKPVE‐Nval‐WRK(Dnp)‐NH2 fluorogenic MMP substrate (R&D systems) and 25 μM Boc‐V‐P‐R‐AMC substrate (R&D systems), respectively.

The target in test [4] is T3, Human thrombin (Homo sapiens, UniProt P00734).
T3 construct: Human thrombin was purchased from Biopur; purchased Biopur
The experiment in a line: Thrombin enzyme inhibition assay. The conditions noted are these: read-out: Thrombin pIC50 (converted). The method, then: as §1

The target in test [5] is T4, KLK7 (Homo sapiens, UniProt P49862).
T4 construct: purchased 2B scientific
The experiment in a line: KLK7 enzyme inhibition assay. Conditions: read-out: KLK7 pIC50 (converted). The method, then:
as §2, §3

Test [6] deals with T5, Human trypsin (Homo sapiens, UniProt P07477).
T5 construct: purchased Polymun Scientific
The experiment in a line: Trypsin enzyme inhibition assay. Conditions: for IC50: read-out: Trypsin pIC50 (converted). As for the experimental part:
Human thrombin was purchased from Biopur. Human trypsin was purchased from Polymun Scientific. Human Factor Xa was purchased from Enzo Life Sciences. […] Fluorescence intensity was then read at ex/em 485/535 following incubation for 1 h at room temperature (thrombin and factor Xa) or 20 min (trypsin).

The target of test [7] is KLK4 (Homo sapiens, UniProt Q9Y5K2). The experiment in a line: KLK4 inhibition (selectivity). Conditions: read-out: KLK4 pIC50 (converted). The source says: Table 3 Activity of synthesized inhibitors against KLK6 and related proteases. | column: KLK4^a
Where [8] appears, read: resynthesized stereoisomers, enzymatic inhibition assay (Table 2).
[9] abbreviates: synthesized inhibitors (Table 3), 8.6 = assay limit.

T1 sequence (P00742 235-488 limits assumed): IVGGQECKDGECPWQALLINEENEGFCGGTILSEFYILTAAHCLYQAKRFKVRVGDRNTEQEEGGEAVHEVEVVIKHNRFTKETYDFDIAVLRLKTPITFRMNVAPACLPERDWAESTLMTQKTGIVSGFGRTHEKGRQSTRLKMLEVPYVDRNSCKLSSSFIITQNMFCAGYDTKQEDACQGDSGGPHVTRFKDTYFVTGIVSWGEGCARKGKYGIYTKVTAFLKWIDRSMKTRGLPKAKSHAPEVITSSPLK
T1 sequence (P00742 41-179 partner limits assumed): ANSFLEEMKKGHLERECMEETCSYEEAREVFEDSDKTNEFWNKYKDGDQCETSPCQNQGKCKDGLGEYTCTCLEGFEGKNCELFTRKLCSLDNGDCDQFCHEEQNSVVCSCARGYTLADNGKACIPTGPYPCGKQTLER
T4 sequence (P49862 30-253, species assumed): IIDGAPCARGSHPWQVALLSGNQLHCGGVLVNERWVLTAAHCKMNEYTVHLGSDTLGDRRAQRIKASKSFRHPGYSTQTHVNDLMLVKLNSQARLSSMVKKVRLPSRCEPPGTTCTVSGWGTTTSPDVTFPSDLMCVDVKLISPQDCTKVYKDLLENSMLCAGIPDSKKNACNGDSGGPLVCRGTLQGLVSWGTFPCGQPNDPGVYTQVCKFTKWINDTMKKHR
Sequence of KLK4 (Q9Y5K2 31-254, species assumed): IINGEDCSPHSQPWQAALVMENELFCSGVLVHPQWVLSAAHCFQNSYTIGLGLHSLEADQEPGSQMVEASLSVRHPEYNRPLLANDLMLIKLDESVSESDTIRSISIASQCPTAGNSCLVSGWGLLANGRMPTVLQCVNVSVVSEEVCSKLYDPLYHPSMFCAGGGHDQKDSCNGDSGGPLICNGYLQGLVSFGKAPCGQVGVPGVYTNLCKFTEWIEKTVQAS

Turning to `COc1cccc([C@H](C)NC(=O)[C@@H]2CN(c3ccc(C(=N)N)cc3)C(=O)O2)c1` [Compound 10], the IC50 in test [1] (setting [8]) is above 20 µM.

As to `COc1cccc([C@@H](C)NC(=O)[C@H]2CN(c3ccc(C(=N)N)cc3)C(=O)O2)c1` [Compound 11, (5R)‐3‐(4‐carbamimidoylphenyl)‐N‐[(R)‐1‐(3‐methoxyphenyl)ethyl]‐2‐oxooxazolidine‐5‐carboxamide], the IC50 in test [2], in test [1] (setting [8]), in test [3], in test [4], in test [5] and in test [6] was above 20 µM each time.

As for `COc1cccc(CNC(=O)[C@H]2CN(c3ccc(C(=N)N)cc3)C(=O)O2)c1` [Compound 23, (5R)‐3‐(4‐carbamimidoylphenyl)‐N‐(3‐methoxybenzyl)‐2‐oxooxazolidine‐5‐carboxamide], the IC50 in test [2] was above 20 µM; in test [1] (setting [9]), 3.98 µM; in test [3], above 20 µM; in test [4] it was above 20 µM; in test [5] it was above 20 µM; in test [6], above 20 µM.

With `CC[C@H](NC(=O)[C@H]1CN(c2ccc(C(=N)N)cc2)C(=O)O1)c1cccc(OC)c1` [Compound 24, (5R)‐3‐(4‐carbamimidoylphenyl)‐N‐[(1S)‐1‐(3‐methoxyphenyl)propyl]‐2‐oxo‐oxazolidine‐5‐carboxamide], the IC50 in test [2] was above 20 µM; in test [1] (setting [9]), 0.0316 µM; in test [7], 2.51 µM; in test [3] it was 5.01 µM; in test [4], above 20 µM; in test [5] it was above 20 µM. Besides, the IC50 in test [6] is 1.58 µM. The compound also had a LipE in test [1] of 5.16. In addition, the “gain in potency for KLK6” value in test [1] (relative to 5) is around 10 fold.

As for `COc1cccc([C@@H](NC(=O)[C@H]2CN(c3ccc(C(=N)N)cc3)C(=O)O2)C2CC2)c1` [Compound 25, (5R)‐3‐(4‐carbamimidoylphenyl)‐N‐((1S)‐cyclopropyl(3‐methoxyphenyl)methyl)‐2‐oxooxazolidine‐5‐carboxamide], the IC50 is above 20 µM in test [2]; 0.0316 µM in test [1] (setting [9]); 0.794 µM in test [3]; above 20 µM in test [4]; above 20 µM in test [5]; 0.251 µM in test [6].

Consider `COc1cccc(C(C)(C)NC(=O)[C@H]2CN(c3ccc(C(=N)N)cc3)C(=O)O2)c1` [Compound 26, (5R)‐3‐(4‐carbamimidoylphenyl)‐N‐(2‐(3‐methoxyphenyl)propan‐2‐yl)‐2‐oxooxazolidine‐5‐carboxamide], for which the IC50 was 0.158 µM in test [1] (setting [9]), above 20 µM in test [3] and 10 µM in test [6].

Consider `CC(C)(NC(=O)[C@H]1CN(c2ccc(C(=N)N)cc2)C(=O)O1)c1ccccc1` [Compound 27, (5R)‐3‐(4‐carbamimidoylphenyl)‐2‐oxo‐N‐(2‐phenylpropan‐2‐yl)oxazolidine‐5‐carboxamide], for which the IC50 in test [2] was above 20 µM; in test [1] (setting [9]), 0.794 µM; in test [7], 39.8 µM; in test [3] it was above 20 µM; in test [4] it was above 20 µM; in test [5], above 20 µM. The IC50 in test [6] is above 20 µM.

As for `CC(C)(NC(=O)[C@H]1CN(c2ccc(C(=N)N)cc2)C(=O)O1)C(=O)Nc1ccccc1` [Compound 28, (5R)‐3‐(4‐carbamimidoylphenyl)‐N‐(2‐methyl‐1‐oxo‐1‐(phenylamino)propan‐2‐yl)‐2‐oxooxazolidine‐5‐carboxamide], in test [1], the LipE is recorded as 6.20. For the same compound, the figures for the IC50 in test [1] (setting [9]), in test [7] and in test [6] were 0.0316 µM, 1.58 µM and 6.31 µM, respectively.

As to `C[C@H](NC(=O)[C@H]1CN(c2ccc(C(=N)N)cc2)C(=O)O1)c1cccc2ccccc12` [Compound 29, (5R)‐3‐(4‐carbamimidoylphenyl)‐N‐((S)‐1‐(naphthalen‐1‐yl)ethyl)‐2‐oxooxazolidine‐5‐carboxamide], the IC50 in test [2] was above 20 µM; in test [1] (setting [9]) it was 0.0126 µM; in test [7], 0.631 µM; in test [3], 1 µM; in test [4], above 20 µM; in test [5], above 20 µM. Further, the IC50 in test [6] was 0.794 µM.

The compound `CC(C)(NC(=O)[C@H]1CN(c2ccc(C(=N)N)cc2)C(=O)O1)c1cccc2ccccc12` [Compound 31, (5R)‐3‐(4‐carbamimidoylphenyl)‐N‐(2‐(naphthalen‐1‐yl)propan‐2‐yl)‐2‐oxooxazolidine‐5‐carboxamide] displayed a KLK6 potency loss in test [1] (relative to 29) of around 6 fold. Besides, the IC50 in test [1] (setting [9]) is 0.0794 µM; in test [3], above 20 µM; in test [6], 5.01 µM.

In the case of `CC[C@H](NC(=O)[C@H]1CN(c2ccc(C(=N)N)cc2)C(=O)O1)c1ccnc2ccccc12` [Compound 33, (5R)‐3‐(4‐carbamimidoylphenyl)‐2‐oxo‐N‐((1S)‐1‐(quinolin‐4‐yl)propyl)oxazolidine‐5‐carboxamide], the results for the IC50 in test [1] (setting [9]), in test [3] and in test [6] were 0.126 µM, above 20 µM and 6.31 µM, respectively.

The compound `CC[C@H](NC(=O)[C@H]1CN(c2ccc(C(=N)N)nc2)C(=O)O1)c1cccc2ccccc12` [Compound 34, (5R)‐3‐(6‐carbamimidoylpyridin‐3‐yl)‐N‐((1S)‐1‐(naphthalen‐1‐yl)propyl)‐2‐oxooxazolidine‐5‐carboxamide] had a LipE in test [1] of 5.76. The results for the IC50 in test [1] (setting [9]), in test [3] and in test [6] were 0.00501 µM, 0.501 µM and 0.631 µM, respectively. For the same compound, in test [6] (KLK6 over trypsin), the selectivity against trypsin was above 100 fold.

In test [1] (relative to 32), `CC[C@H](NC(=O)[C@H]1CN(c2ccc(CN)cc2)C(=O)O1)c1cccc2ccccc12` [Compound 35, (5R)‐3‐(4‐(aminomethyl)phenyl)‐N‐[(1S)‐1‐(naphthalen‐1‐yl)propyl]‐2‐oxooxazolidine‐5‐carboxamide] had a KLK6 potency loss of around 100 fold. The IC50 in test [1] (setting [9]) is 0.316 µM; in test [7], 5.01 µM; in test [3] it was 10 µM; in test [6], 5.01 µM.

As to `COc1cccc([C@H](C)NC[C@H]2CN(c3ccc(C(=N)N)cc3)C(=O)O2)c1` [Compound 49, 4‐((S)‐5‐((((S)‐1‐(3‐methoxyphenyl)ethyl)amino)methyl)‐2‐oxooxazolidin‐3‐yl)benzimidamide], the IC50 is above 20 µM in test [2]; 10 µM in test [1] (setting [9]); above 20 µM in test [3]; above 20 µM in test [4]; above 20 µM in test [5]; above 20 µM in test [6]. The KLK6 potency loss in test [1] (relative to 5) came out at 40 fold.

The values are drawn from publication PMC7004151, “Synthesis and Structure‐Activity Relationships of N‐(4‐Benzamidino)‐Oxazolidinones: Potent and Selective Inhibitors of Kallikrein‐Related Peptidase 6” (Chemmedchem, 2019).
